Measurements: patent US7019194B2, “SCCE modified transgenic mammals and their use as models of human disease” (priority 2001, dated 2006)
“Also recorded” adds a separate entry of the source.

System: scce-transgenic mice
Assay: Scratching behaviour (itch) in scce-transgenic mice for testing of antipruritic agents
Type: in vivo
Settings: scce-transgenic mice 20-21 weeks; tube feeding, 30 μl of 1 mg/ml mixture (FIG. 8A), 90 μl 7 days later (FIG. 8B); versus sucrose control solution
Description: Scratching behavior of scce-transgenic (#1010) mice. Twenty one mice, (11 transgenes, 5 females; 10 wild type litter mates, 2 females) were observed every fifth day for 45 days, starting when the mice were 5-6 weeks of age. At each observation point mice were transferred to individual cages, and episodes of scratching with hind or front paws were counted during three 5-min periods with 2.5 min lapsing from the transfer to the cage to the first counting, and between counting periods. The results for the three observation periods were pooled and the number of episodes of scratching per min calculated. […]
Transgenic mice, 18-22 weeks of age, mean weight 24.2 g, were given subcutaneous injections of either 250 μg of the glucocorticoid triamcinolone acetonide in a total volume of 100 μl on day 0, and 100 μg triamcinolone acetonide in a total volume of 100 μl on days 7, 14 and 21, or 100 μl of physiological saline at the same time points. Episodes of scratching were counted in the morning and injections were given in the afternoon. […]
Transgenic mice 20-21 weeks of age, mean weight […], were given either loratidine in a total volume of 100 μl, or 100 μl of a control solution by means of tube feeding. Episodes of scratching were counted immediately before feeding (0 hours), and then at time points as indicated. […]

## CCOC(=O)N1CCC(=C2c3ccc(Cl)cc3CCc3cccnc32)CC1 [loratidine]
  effect on itch (frequency of scratching): no significant difference in frequency of scratching; also recorded: no statistically significant antipruritic effect; also recorded: no statistically significant differences in frequency of scratching
